Data taken from article PMC6754136 (PLoS ONE, 2019).
Entries after “also recorded” stand apart in the source; their conditions may differ.

How the values were obtained:
recombinant human PDE5 = recombinant human PDE5 (Homo sapiens, UniProt O76074); assay: in vitro PDE5 kinetics assay (nonlinear regression, AICc model comparison); format: biochemical
Description: guidelines were considered in the description of the following enzyme activity assays. […] For kinetics assays, 0.015, 0.05, and 0.2 μM of compounds 3 and 7 were used. […] Maximum DMSO concentration was 0.1% of the final reaction volume for all samples. […] The final reaction volume was 100 μL. Reactions were stopped with the addition of 100 μL of 0.1 M HCl and neutralized by adding 0.1 M NaOH until the pH was 7. […] Reaction mixture components were separated with a ramp gradient of solvent A and B run at a flow rate of 0.5 mL/min as follows: 0-4 minutes 0% B, 4-7 minutes 0-95% B, 7-8 minutes 95% B, 8-11.1 minutes 0% B. GMP was measured using selected reaction monitoring in positive mode for a centroid center mass of 152. […] Top value was constrained to 100, all other parameters were unconstrained. To obtain the dose-response curves for visual confirmation of the best-fit line, we executed a nonlinear regression fitting using the log(inhibitor) vs. response-variable slope (four parameters) equation in Prism. […] AICc analysis (built into Prism) was used to confirm the best-fitting inhibition model. […] Inhibition models were also compared via visual inspection of the fit of the calculated curves on the Michaelis-Menten plots.

[1] = mitochondrial viability assay with resazurin; format: cell-based, human; details: human, four cell lines, 0.01–10 μM, even at the highest concentration tested (10 μM)
Description: The human cell lines SH-SY5Y (SY5Y, ATCC CRL-2266), SK-MEL-5 (SKMEL-5, ATCC HTB-70), and NCI-H187 (H187, ATCC CRL-5804) were cultured in RPMI medium supplemented with 10% FBS and no antibiotics. These three cell lines were generously provided by the laboratory of Susan Lindquist via Luke Whitesell (currently at the University of Toronto, Toronto, ON, Canada). BJ-hTERT (described in [27], generously provided by Robert Weinberg, Whitehead Institute, Cambridge MA, USA) was cultured in 4:1 DMEM:M199 medium supplemented with 15% FBS and no antibiotics. All cell lines were grown and assayed at 37 °C, 5% CO2. All cell lines were screened for mycoplasma contamination by PCR (Mycoscope Detection Kit, Fisher Scientific) before use in assays.
For viability assays, cells were plated in black, clear bottom 384-well tissue culture-treated plates (Corning) and incubated overnight in the media described above but supplemented with 50 U/mL penicillin-streptomycin antibiotic (Life Technologies). Then, DMSO (no drug controls) and PDE5 inhibitors (0.01–10 μM; synthesized as described above or purchased from Selleck Chemicals) were added using a Hewlett-Packard D300 Digital Dispenser (Tecan) and incubated for 3 days. Maximum DMSO concentration was normalized to 0.1% of the total well volume for all wells. Resazurin (R & D Systems) was diluted 1:20 into each well and incubated for up to 4 hours. Fluorescence was read in a Tecan plate reader (excitation = 570 nm, emission = 585 nm). Wells treated with PDE5 inhibitors were normalized against control wells treated with DMSO to measure percent mitochondrial viability (100 = no effect on mitochondrial viability).

Ki (recombinant human PDE5): 36 ± 7 nM | Preferred model (recombinant human PDE5; AICc comparison of competitive vs noncompetitive inhibition): Competitive inhibition | Preferred model (recombinant human PDE5; AICc comparison of competitive vs uncompetitive inhibition): Competitive inhibition | probability that the competitive inhibition model is correct (recombinant human PDE5; AICc, compared to a noncompetitive or uncompetitive model): > 99% | Probability it is correct (competitive inhibition) (recombinant human PDE5; AICc, competitive vs noncompetitive inhibition): >99.99% | Probability it is correct (competitive inhibition) (recombinant human PDE5; AICc, competitive vs uncompetitive inhibition): >99.99%
SMILES: COc1ccc(-c2oc3c(CC=C(C)C)c(O)cc(O)c3c(=O)c2OCCCO)cc1 [Compound 7, 3-O-(3-Hydroxypropyl)-Icaritin]
mode of inhibition (recombinant human PDE5; Lineweaver-Burk plot and AICc analysis): competitive inhibition as the best fitting model; also recorded: partially competitive model | viability at 3 days, 10 μM [1]: > 70%
